For the assay, the target named is T1, ASGP receptor (biotinylated ASGPR) (Homo sapiens, UniProt P07306).
T1 construct: biotin (biotinylated)
T1 sequence (P07306 1-291): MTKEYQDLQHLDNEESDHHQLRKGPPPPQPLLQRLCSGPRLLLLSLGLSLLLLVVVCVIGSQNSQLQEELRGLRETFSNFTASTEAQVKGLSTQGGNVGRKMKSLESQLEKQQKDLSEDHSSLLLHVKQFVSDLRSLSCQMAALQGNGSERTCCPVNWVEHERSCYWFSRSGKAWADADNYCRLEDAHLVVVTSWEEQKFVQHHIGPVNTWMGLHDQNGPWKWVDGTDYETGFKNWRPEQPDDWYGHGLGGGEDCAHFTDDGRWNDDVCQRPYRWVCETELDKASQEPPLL
Type of assay: binding. The following applies: SPR, Biacore 8K, 25° C. On the technique in general: Surface plasmon resonance follows binding to a sensor surface in real time, without labels.

[1] abbreviates: Table 1D, numeric bound, read-out: ASGPR KD.

Each structure is given as a SMILES string. Where two headings read alike, the source gives them in different places.

As for `C[C@H]1O[C@H](CO)[C@H](Oc2cncc(C(F)(F)F)n2)[C@@H](O)[C@H]1O` [A436], the Kd (commonly the free concentration of one partner at which half of the binding sites on the other are occupied at equilibrium, for simple one-to-one binding) (Table 1E, numeric bound, read-out: ASGPR KD) is over 30 µM.
On to `O[C@@H]1[C@H](O)[C@@H](Nc2cncc(C(F)(F)F)n2)CO[C@@H]1C(F)F` [A179, (2S,3R,4R,5S)-2-(difluoromethyl)-5-((6-(trifluoromethyl)pyrazin-2-yl)amino)tetrahydro-2H-pyran-3,4-diol], for which, where the note is “Table 1C, read-out: ASGPR KD”, the Kd was under 10 µM.
`O=C(OCc1ccccc1)N1C[C@H](O)[C@H](O)[C@@H]([S@@+]([O-])c2cccc(C(F)(F)F)n2)C1` [A354]: the Kd (Table 1D, read-out: ASGPR KD) lay in the range of 10 to 100 µM.
On to `O=C(NC[C@H]1OC[C@H](Nc2cncc(C(F)(F)F)n2)[C@@H](O)[C@H]1O)c1cnc2[nH]cnc2c1` [A79, N-(((2R,3R,4R,5S)-3,4-dihydroxy-5-((6-(trifluoromethyl)pyrazin-2-yl)amino)tetrahydro-2H-pyran-2-yl)methyl)-3H-imidazo[4,5-b]pyridine-6-carboxamide], for which the Kd (Table 1A, read-out: ASGPR KD) was under 10 µM.
As for `O[C@@H]1[C@H](O)[C@@H](Nc2cncc(C(F)(F)F)n2)CO[C@@H]1CNc1ccnnc1` [A41, (2R,3R,4R,5S)-2-((pyridazin-4-ylamino)methyl)-5-((6-(trifluoromethyl)pyrazin-2-yl)amino)tetrahydro-2H-pyran-3,4-diol], the Kd (Table 1A, read-out: ASGPR KD) was under 10 µM.
Regarding `OC[C@H]1OC[C@H](Nc2cncc(Br)n2)[C@@H](O)[C@H]1O` [A138, (2R,3R,4R,5S)-5-((6-bromopyrazin-2-yl)amino)-2-(hydroxymethyl) tetrahydro-2H-pyran-3,4-diol], the Kd (Table 1A, read-out: ASGPR KD) was under 10 µM.
Consider `O=C(OCc1ccccc1)N1C[C@H](O)[C@H](O)[C@@H]([S@+]([O-])c2cccc(C(F)(F)F)n2)C1` [A355], for which, under setting [1], the Kd is over 30 µM.
On to `O[C@@H]1[C@@H](Oc2cccc(C(F)(F)F)n2)CN(c2noc(-c3ccccc3)n2)C[C@@H]1O` [A353], for which, for the setting “Table 1D, read-out: ASGPR KD”, the dissociation constant (Kd) is under 10 µM.
For the compound `O[C@@H]1[C@H](O)[C@@H](Oc2cccc(C(F)(F)F)n2)CO[C@@H]1COc1ccc(Br)cc1` [A238], under “Table 1C, read-out: ASGPR KD”, the Kd is under 10 µM.
For the compound `O=C(NC[C@H]1OC[C@H](Nc2cncc(C(F)(F)F)n2)[C@@H](O)[C@H]1O)C1C[C@@H]2CC[C@H]1C2` (stereo partly drawn) [A18, (1S,4R)—N-(((2R,3R,4R,5S)-3,4-dihydroxy-5-((6-(trifluoromethyl)pyrazin-2-yl)amino)tetrahydro-2H-pyran-2-yl)methyl)bicyclo[2.2.1]heptane-2-carboxamide], the Kd (Table 1A, read-out: ASGPR KD) is under 10 µM.
With `O=C(O)C1CCC(C(=O)NC[C@H]2OC[C@H](Nc3cncc(C(F)(F)F)n3)[C@@H](O)[C@H]2O)CC1` (stereo partly drawn) [A32, 4-((((2R,3R,4R,5S)-3,4-dihydroxy-5-((6-(trifluoromethyl)pyrazin-2-yl)amino)tetrahydro-2H-pyran-2-yl)methyl)carbamoyl)cyclohexane-1-carboxylic acid], the Kd (Table 1A, read-out: ASGPR KD) was under 10 µM.
As to `O[C@@H]1[C@H](O)[C@@H](Oc2cccc(C(F)(F)F)n2)CO[C@@H]1COc1cncnc1` [A289], for the setting “Table 1C, read-out: ASGPR KD”, the Kd was under 10 µM.
Regarding `NC[C@H]1OC[C@H](Nc2cccc(C(F)(F)F)n2)[C@@H](O)[C@H]1O` [A98, (2R,3R,4R,5S)-2-(aminomethyl)-5-((6-(trifluoromethyl)pyridin-2-yl)amino) tetrahydro-2H-pyran-3,4-diol], the Kd (Table 1A, read-out: ASGPR KD) was under 10 µM.
As for `O=C(O)c1ccc(C(=O)N2C[C@H](Nc3cncc(C(F)(F)F)n3)[C@@H](O)[C@@H](O)C2)nc1` [A392], the equilibrium dissociation constant (Kd) (Table 1D, read-out: ASGPR KD) is under 10 µM.
`NCCOCCOCC(=O)NC[C@H]1OC[C@H](Oc2cccc(C(F)(F)F)n2)[C@@H](O)[C@H]1O` [A326]: the Kd (Table 1C, read-out: ASGPR KD) is under 10 µM.
For the compound `O[C@@H]1[C@@H](Oc2cccc(C(F)(F)F)n2)CNC[C@@H]1O` [A388], for the setting “Table 1D, read-out: ASGPR KD”, the Kd was under 10 µM.
In the case of `OC[C@H]1OC[C@H](Nc2cccc(OC(F)(F)F)n2)[C@@H](O)[C@H]1O` [A143, (2R,3R,4R,5S)-2-(hydroxymethyl)-5-((6-(trifluoromethoxy)pyridin-2-yl)amino)tetrahydro-2H-pyran-3,4-diol], where the note is “Table 1B, read-out: ASGPR Kd”, the Kd was under 10 µM.
With `C[C@H]1O[C@H](c2cc[nH]n2)[C@H](Oc2cccc(C(F)(F)F)n2)[C@@H](O)[C@H]1O` [A332], the Kd (Table 1C, read-out: ASGPR KD) is under 10 µM.
Regarding `O=C(NC[C@H]1OC[C@H](Nc2cncc(C(F)(F)F)n2)[C@@H](O)[C@H]1O)c1cccnc1` [A63, N-(((2R,3R,4R,5S)-3,4-dihydroxy-5-((6-(trifluoromethyl)pyrazin-2-yl)amino)tetrahydro-2H-pyran-2-yl)methyl)nicotinamide], the Kd (Table 1A, read-out: ASGPR KD) is under 10 µM.
For the compound `C[C@H]1O[C@H](c2ccccc2)[C@H](Oc2cccc(C(F)(F)F)n2)[C@@H](O)[C@H]1O` [A252], the dissociation constant (Kd) (Table 1C, read-out: ASGPR KD) is under 10 µM.
`C[C@H]1O[C@H](c2ccc3c(c2)CCC3)[C@H](Oc2cccc(C(F)(F)F)n2)[C@@H](O)[C@H]1O` [A340]: where the note is “Table 1C, read-out: ASGPR KD”, the Kd is under 10 µM.
Turning to `O=C(NC[C@H]1OC[C@H](Nc2cncc(C(F)(F)F)n2)[C@@H](O)[C@H]1O)Nc1ccc(C(=O)O)cc1` [A113, 4-(3-(((2R,3R,4R,5S)-3,4-dihydroxy-5-((6-(trifluoromethyl)pyrazin-2-yl)amino)tetrahydro-2H-pyran-2-yl)methyl)ureido)benzoic acid], where the note is “Table 1A, read-out: ASGPR KD”, the Kd is under 10 µM.
Take `O[C@@H]1[C@H](O)[C@@H](Nc2cncc(C(F)(F)F)n2)CO[C@@H]1COc1ccc(C2CCNCC2)nn1` [A416]: the Kd (Table 1D, read-out: ASGPR KD) was under 10 µM.
`O=C(O)c1ccc(N2CCN(C[C@H]3OC[C@H](Nc4cncc(C(F)(F)F)n4)[C@@H](O)[C@H]3O)CC2)cc1` [A223, 4-(4-(((2R,3R,4R,5S)-3,4-dihydroxy-5-((6-(trifluoromethyl)pyrazin-2-yl)amino)tetrahydro-2H-pyran-2-yl)methyl)piperazin-1-yl) benzoic acid]: where the note is “Table 1C, read-out: ASGPR KD”, the Kd is under 10 µM.
Take `O=C(c1ccccn1)N1C[C@H](Nc2cncc(C(F)(F)F)n2)[C@@H](O)[C@@H](O)C1` [A423]: the Kd (Table 1D, read-out: ASGPR KD) was under 10 µM.
With `O=C(O)CCC(=O)NC1CC2(C1)CC(NC(=O)C[C@H]1OC[C@H](Nc3cncc(C(F)(F)F)n3)[C@@H](O)[C@H]1O)C2` (some centres unmarked) [A93], the Kd (Table 1A, read-out: ASGPR KD) was under 10 µM.
Still for that read-out and setting: the result for `OC[C@H]1O[C@@H](c2ccccc2)[C@H](Nc2cncc(C(F)(F)F)n2)[C@@H](O)[C@H]1O` [A109, (2R,3R,4R,5R,6S)-2-(hydroxymethyl)-6-phenyl-5-((6-(trifluoromethyl)pyrazin-2-yl)amino)tetrahydro-2H-pyran-3,4-diol] reads 10 to 100 µM; that for `O=C(NC[C@H]1OC[C@H](Nc2cncc(C(F)(F)F)n2)[C@@H](O)[C@H]1O)c1cnc[nH]1` [A22, N-(((2R,3R,4R,5S)-3,4-dihydroxy-5-((6-(trifluoromethyl)pyrazin-2-yl)amino)tetrahydro-2H-pyran-2-yl)methyl)-1H-imidazole-5-carboxamide], under 10 µM.
`OC[C@H]1OC[C@H](Sc2cccc(C(F)(F)F)n2)[C@@H](O)[C@H]1O` [A161, (2R,3R,4S,5S)-2-(hydroxymethyl)-5-((6-(trifluoromethyl)pyridin-2-yl)thio)tetrahydro-2H-pyran-3,4-diol]: the Kd (Table 1B, read-out: ASGPR Kd) was under 10 µM.
With `C#Cc1ccc(OC[C@H]2O[C@H](C)[C@H](O)[C@H](O)[C@H]2Oc2cccc(C(F)(F)F)n2)nn1` [A442], the Kd (Table 1E, read-out: ASGPR KD) was under 10 µM.
As for `NC1CC2(C1)CC(NC(=O)C[C@H]1OC[C@H](Nc3cncc(C(F)(F)F)n3)[C@@H](O)[C@H]1O)C2` (stereo partly drawn) [A92, N-(6-aminospiro[3.3]heptan-2-yl)-2-((2R,3R,4R,5S)-3,4-dihydroxy-5-((6-(trifluoromethyl)pyrazin-2-yl)amino)tetrahydro-2H-pyran-2-yl)acetamide], the Kd (Table 1A, read-out: ASGPR KD) was under 10 µM.
Take `O=C(O)c1ccc(CN2CCN(C[C@H]3OC[C@H](Nc4cncc(C(F)(F)F)n4)[C@@H](O)[C@H]3O)CC2)cc1F` [A204, 4-((4-(((2R,3R,4R,5S)-3,4-dihydroxy-5-((6-(trifluoromethyl)pyrazin-2-yl)amino)tetrahydro-2H-pyran-2-yl)methyl)piperazin-1-yl)methyl)-2-fluorobenzoic acid]: the Kd (Table 1C, read-out: ASGPR KD) is under 10 µM.
With `CN1CC2CN(C[C@H]3OC[C@H](Oc4cccc(C(F)(F)F)n4)[C@@H](O)[C@H]3O)CCN2C1=O` (some centres unmarked) [A302], the Kd (Table 1C, read-out: ASGPR KD) was under 10 µM.
On the same count and under the same terms, the result for `Nc1ccc(OC[C@H]2OC[C@H](Oc3cccc(C(F)(F)F)n3)[C@@H](O)[C@H]2O)nn1` [A323] reads under 10 µM.
For the compound `O[C@@H]1[C@H](O)[C@@H](Nc2cncc(C(F)(F)F)n2)CO[C@@H]1CN1CCCNCC1` [A68, (2R,3R,4R,5S)-2-((1,4-diazepan-1-yl)methyl)-5-((6-(trifluoromethyl)pyrazin-2-yl)amino)tetrahydro-2H-pyran-3,4-diol], the Kd (Table 1A, read-out: ASGPR KD) is under 10 µM.
On to `CN1C[C@H](Nc2ccc(C(F)(F)F)cn2)[C@@H](O)[C@@H](O)C1` [A368], for which, under setting [1], the dissociation constant Kd was over 30 µM.
`OC[C@H]1OC[C@H](Nc2ncc3nc[nH]c3n2)[C@@H](O)[C@H]1O` [A197, (2R,3R,4R,5S)-5-((9H-purin-2-yl)amino)-2-(hydroxymethyl)tetrahydro-2H-pyran-3,4-diol]: the dissociation constant Kd (Table 1C, numeric bound, read-out: ASGPR KD) is over 30 µM.
For the compound `OC[C@H]1O[C@H](c2ccccc2)[C@H](Nc2cncc(C(F)(F)F)n2)[C@@H](O)[C@H]1O` [A105, (2R,3R,4R,5R,6R)-2-(hydroxymethyl)-6-phenyl-5-((6-(trifluoromethyl)pyrazin-2-yl)amino)tetrahydro-2H-pyran-3,4-diol], the dissociation constant Kd (Table 1A, read-out: ASGPR KD) was under 10 µM.

The values above are taken from patent US20260083851A1 (AVILAR THERAPEUTICS, INC., priority 2022, published 2026).
